Assays:
Cynomolgus monkeys = experiment: 7-day toxicology study of hEN101 in Cynomolgus monkeys; format: in vivo, Cynomolgus monkey
Description: (§1) This experiment was conducted with six (3 males and 3 females) purpose-bred 15 month-old (young adult) Cynomolgus monkeys, divided in three groups (1, 2 and 3) of one male and one female each. Groups 1 and 2 received hEN101 daily by o.g. for a period of 7 days, at a concentration of 0.15 and 0.50 μg/g/day, respectively. Group 3 received daily i.v. injections of hEN101 for a period of 7 days at a dosage of 0.50 μg/g/day.
Over a 12 hour period, plasma samples were obtained during the second treatment day to investigate the toxicokinetic profile at each dosage. The toxicology study consisted of checking the animals during the 7 days of treatment for gross signs of toxicity by the following parameters: mortality, body weight, food consumption, electrocardiography, blood pressure, hematology (peripheral blood), and blood chemistry. At 7 days the monkeys were sacrificed and examined post-mortem for macroscopic pathology and organ weight. Fixed sections of brain (cerebellum, cerebrum, midbrain, medulla), caecum, colon, duodenum, heart (auricular and ventriclar regions), ileum, jejunum, kidneys (cortex, medulla, papilla regions), liver (two main lobes), lungs (two major lobes, including bronchi), lymph nodes (mandibular and mesenteric), esophagus, rectum, sciatic nerve, skeletal muscle (thigh), spinal cord (transverse and longitudinal sections at cervical level), spleen and stomach (body and antrum) were stained with hematoxylin/eosin to reveal necrosis or cell death.

AChE-R mRNA = experiment: In situ hybridization of AChE-R mRNA in monkey spinal cord neurons; format: in vivo, Cynomolgus monkey
Description: (§2) In situ hybridization: Tissues were fixed in 4% paraformaldehyde and cut into 7 μm paraffin embedded sections. Spinal cord sections were deparaffinized, rehydrated using serial ethanol dilutions and permeabilized with proteinase K (10 μg/ml at room temp.). Slides were exposed to 5′ biotinylated, fully 2′-oxymethylated AChE-R or AChE-S-specific 50-mer cRNA probes complementary to human ACHE pseudo-intron 4 or exon 6, respectively [Grisaru et al. (2001) id ibid.]. Hybridization was performed overnight at 52° C. in hybridization mixture containing 10 μg/ml probe, 50 μg/ml yeast tRNA, 50 μg/ml heparin and 50% formamide in 375 mM Na chloride, 37.5 mM Na citrate, pH 4.5. For monkey sections, the probe was constructed according to the human AChE-R sequence; for rat sections, according to the mouse sequence. Slides were washed to remove non-hybridized probe, blocked with 1% skim milk containing 0.01% Tween-20 and 2 mM levamisole, an alkaline phosphatase inhibitor used to suppress non-specific staining and incubate with streptavidin-alkaline phosphatase (Amersham Pharmacia). Fast Red™ substrate (Roche Diagnostics) was used for detection. DAPI staining (Sigma Chemical Co., St. Louis, Mo., USA) served to visualize nuclei. Microscope images were analyzed with Image Pro Plus 4.0 (Media Cybernetics) software.
as §1
Paraffin-embedded 7 μm spinal cord sections were examined by in situ hybridization for the levels of AChE-R and AChE-S mRNA.
AChE-R-positive sections from monkey spinal cords were analyzed for the relation between cell body diameter and percentage of AChE-R positive cells (FIG. 15). Cells were divided into three categories according to their body diameter, and the percentage of AChE-R-positive cells from each category was evaluated. […] Either i.v. or p.o. administration of the higher EN101 concentration (500 μg/kg/day) reduced the percentage of AChE-R-positive neurons, compared to the lower concentration (p<0.05. Student's t test). […] We have yet to discover the functional correlate of cell size that determines the efficacy of antisense suppression of AChE-R expression.

healthy rats [1] = experiment: Electromyography: CMAP ratio in naive (healthy) rats; format: in vivo, rat; conditions: for CMAP ratio (5th vs. 1st amplitude): naive rats, 50 μg/Kg, average ± SEM
Description: Electromyography: Rats were anesthetized by i.p. injection of […] pentobarbital, immobilized, and subjected to repetitive sciatic nerve stimulation, using a pair of concentric needle electrodes at 3 Hz. Baseline compound muscle action potential (CMAP) was recorded by a concentric needle electrode placed in the gastrocnemius muscle, following a train of repetitive nerve stimulations at supramaximal intensity. Decrease (percent) in the amplitude of the fifth vs. the first muscle action potential was determined in two sets of repetitive stimulations for each animal. A reduction of 10% or more was considered indicative of neuromuscular transmission dysfunction.
Drug administration: Intravenous injections and blood sampling for anti-AChR antibodies testing were via the right jugular vein under anesthesia. For oral administration, a special needle for oral gavage feeding was used, which is curved with a ball end (Stoelting, Wood Dale Ill.). Mestinon® was administered in a dose of 1 mg/kg/day, and purchased from Hoffmann La-Roche. Basel, Switzerland.

AChE-S mRNA = experiment: In situ hybridization of AChE-S mRNA in rat muscle; format: in vivo; conditions: 24 h after single i.v. injection
Description: as §2, with “software. […]” for “software.”

EAMG rats = experiment: Electromyography: CMAP ratio under repetitive 3 Hz nerve stimulation in EAMG rats; format: in vivo, rat; conditions: for CMAP ratio (5th vs. 1st amplitude): average ± SEM
healthy rats [2] = experiment: Treadmill running time of healthy rats; format: in vivo, rat; conditions: 250 μg/Kg
Description: Exercise training on treadmill: To establish a clinical measure of neuromuscular performance in EAMG rats, a treadmill assay was performed. Animals were placed on an electrically powered treadmill [Moran et al. (1996) J Therm Biol 21, 171-181] at 25 m/min (a physical effort of moderate intensity) until visibly fatigued. The amount of time the rats were able to run was recorded before and after anti-sense or Mestinon® treatment.

## 5′-CTGCCACGTTCTCCTGCACC-3′ [hEN101]
Cynomolgus monkeys; i.v. 0.50 μg/g/day, 7 days
  Post-mortem finding at injection site: some irritation of the perivascular tissue at the site of intravenous injection
Cynomolgus monkeys; in each group, possibly associated with treatment
  Animals with slight healing erosions in the body of the stomach post-mortem: 1 of 2
Cynomolgus monkeys; o.g. 0.15 or 0.50 μg/g/day, i.v. 0.50 μg/g/day, 7 days
  Clinical investigations for toxicity: no toxicological effects
AChE-R mRNA; 150 μg/kg/day
  Percent of small AChE-R-positive cells (<70 μm diameter) vs naive monkeys: caused an increase
AChE-R mRNA; 150-500 μg/kg/day
  Effect on AChE-R labeling of larger neurons (>70 μm): not discernable effect
AChE-R mRNA; increasing daily dose from 0.15 (oral) to 0.50 (oral or i.v.) μg/g/day, i.v. more effective
  AChE-R mRNA in spinal cord: significant reduction
AChE-R mRNA; lower to higher oral dose (150 to 500 μg/kg/day), even further with i.v.
  Percentage of labeled small (23 to 40 μm) and medium-sized (40 to 70 μm) neurons: decreased significantly

## 5′-CTGCGATATTTTCTTGTACC-3′ (chemistry not given here) [rEN101]
Healthy rats [1]; i.v., doses 10-500 μg/Kg
  Effect on CMAP in healthy animals: did not affect CMAP
Healthy rats [1]; intravenous, 0 h
  CMAP ratio (5th vs. 1st amplitude): 1.00 ± 0.0
Healthy rats [1]; intravenous, 5 h
  CMAP ratio (5th vs. 1st amplitude): 1.00 ± 0.01
Healthy rats [1]; intravenous, 24 h
  CMAP ratio (5th vs. 1st amplitude): 1.02 ± 0.01
Healthy rats [1]; oral, 0 h
  CMAP ratio (5th vs. 1st amplitude): 1.01 ± 0.01
Healthy rats [1]; oral, 1 h
  CMAP ratio (5th vs. 1st amplitude): 1.0 ± 0.02
Healthy rats [1]; oral, 5 h
  CMAP ratio (5th vs. 1st amplitude): 1.03 ± 0.02
Healthy rats [1]; oral, 24 h
  CMAP ratio (5th vs. 1st amplitude): 1.01 ± 0.00
AChE-S mRNA
  AChE-S mRNA labeling in muscle: only nominally affected
EAMG rats; 50 μg/Kg i.v.
  Duration of effective CMAP correction: 24 h
EAMG rats; 500 μg/Kg i.v.
  Duration of CMAP rectification: 72 h
  Extent of CMAP rectification: up to 125 % of baseline
EAMG rats; EAMG rats, FIG. 9B inset
  Average CMAP ratio in treated animals: 107.4±3.8 % of first depolarization
EAMG rats; doses between 10-500 μg/Kg
  Duration of restoration of CMAP decline: up to 72 h
EAMG rats; i.v., doses 10-500 μg/Kg
  Time to retrieve stable CMAP ratios: ≤ 1 h
EAMG rats; i.v., up to 5 h following injection (1 and 5 h)
  IC50 of saturable CMAP response (dose response curve): < 0.01 mg/kg
EAMG rats; intravenous, EAMG rats, 0 h, 50 μg/Kg
  CMAP ratio (5th vs. 1st amplitude): 0.87 ± 0.01
EAMG rats; intravenous, EAMG rats, 1 h, 50 μg/Kg
  CMAP ratio (5th vs. 1st amplitude): 1.00 ± 0.01
EAMG rats; intravenous, EAMG rats, 5 h, 50 μg/Kg
  CMAP ratio (5th vs. 1st amplitude): 0.98 ± 0.02
EAMG rats; intravenous, EAMG rats, 24 h, 50 μg/Kg
  CMAP ratio (5th vs. 1st amplitude): 1.00 ± 0.00
EAMG rats; oral gavage, 50 μg/Kg oligonucleotide, 1000 μg/kg pyridostigmine, CMAP 1, 5, 24 h
  Effect of oral administration on CMAP decline: as effective as 25 μg/Kg administered i.v.
EAMG rats; oral, EAMG rats, 0 h, 50 μg/Kg oligonucleotide, 1000 μg/Kg pyridostigmine
  CMAP ratio (5th vs. 1st amplitude): 0.84 ± 0.03
EAMG rats; oral, EAMG rats, 1 h, 50 μg/Kg oligonucleotide, 1000 μg/Kg pyridostigmine
  CMAP ratio (5th vs. 1st amplitude): 0.97 ± 0.02
EAMG rats; oral, EAMG rats, 5 h, 50 μg/Kg oligonucleotide, 1000 μg/Kg pyridostigmine
  CMAP ratio (5th vs. 1st amplitude): 0.97 ± 0.03
EAMG rats; oral, EAMG rats, 24 h, 50 μg/Kg oligonucleotide, 1000 μg/Kg pyridostigmine
  CMAP ratio (5th vs. 1st amplitude): 1.01 ± 0.01
EAMG rats; single oral dose, rEN101 50 μg/kg, pyridostigmine 1000 μg/kg
  CMAP ratio 24 h following single oral administration: no decline was detected
Healthy rats [2]
  Effect on treadmill running of healthy animals: not significantly affected
